17 compounds from US10544147B2, “Purine inhibitors of human phosphatidylinositol 3-kinase delta” (MERCK SHARP & DOHME CORP., priority 2016, dated 2020) can be followed below.

Molecules are shown by their SMILES. pIC50: −log10 of the molar value. A value given as a limit tells only on which side of the number the result lay.

One test addresses PI3Kdelta (Homo sapiens (Human), UniProt O00329). Briefly: HTRF PI3K biochemical assay, delta isoform. As to conditions: 0.3 nM enzyme, 100 uM ATP, 50 uM PIP2; form screened (neutral or TFA salt). (TR-FRET usually uses a lanthanide donor and a delayed reading to cut background.)
For another test, the target named is PI3Kalpha (Homo sapiens (Human), UniProt P42336). Kind of test: HTRF PI3K biochemical assay, alpha isoform (selectivity versus delta). Conditions: ratio PI3K-alpha IC50 value/PI3K-delta IC50 value.
PI3Kalpha, sequence (P42336 whole entry, canonical isoform): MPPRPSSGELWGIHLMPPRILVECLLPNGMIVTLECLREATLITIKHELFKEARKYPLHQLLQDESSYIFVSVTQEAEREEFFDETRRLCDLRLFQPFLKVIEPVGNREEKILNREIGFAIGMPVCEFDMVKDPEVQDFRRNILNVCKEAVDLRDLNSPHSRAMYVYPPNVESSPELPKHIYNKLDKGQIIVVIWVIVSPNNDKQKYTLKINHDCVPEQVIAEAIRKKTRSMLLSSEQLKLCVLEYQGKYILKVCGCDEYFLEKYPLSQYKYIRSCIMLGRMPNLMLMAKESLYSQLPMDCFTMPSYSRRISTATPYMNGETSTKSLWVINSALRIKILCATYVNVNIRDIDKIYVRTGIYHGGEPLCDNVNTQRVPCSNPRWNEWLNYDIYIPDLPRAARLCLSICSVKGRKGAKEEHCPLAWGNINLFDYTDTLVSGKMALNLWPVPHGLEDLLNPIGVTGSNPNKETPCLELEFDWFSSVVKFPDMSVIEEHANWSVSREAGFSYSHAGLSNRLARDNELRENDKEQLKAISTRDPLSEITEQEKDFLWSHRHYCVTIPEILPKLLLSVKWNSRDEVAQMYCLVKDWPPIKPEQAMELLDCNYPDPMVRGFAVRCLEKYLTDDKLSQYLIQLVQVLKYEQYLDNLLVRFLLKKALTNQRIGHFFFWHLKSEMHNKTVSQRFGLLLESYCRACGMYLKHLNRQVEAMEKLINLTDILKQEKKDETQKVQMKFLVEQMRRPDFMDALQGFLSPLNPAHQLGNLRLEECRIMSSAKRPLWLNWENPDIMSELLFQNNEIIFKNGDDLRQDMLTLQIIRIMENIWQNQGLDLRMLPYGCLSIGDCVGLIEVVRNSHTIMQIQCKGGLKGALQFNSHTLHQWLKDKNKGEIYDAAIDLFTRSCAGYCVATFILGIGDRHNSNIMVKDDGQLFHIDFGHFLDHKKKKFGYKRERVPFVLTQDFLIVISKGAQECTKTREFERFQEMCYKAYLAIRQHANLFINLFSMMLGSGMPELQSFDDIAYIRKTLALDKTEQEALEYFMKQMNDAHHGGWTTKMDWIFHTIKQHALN
PI3Kalpha, sequence (P27986 whole entry partner, canonical isoform): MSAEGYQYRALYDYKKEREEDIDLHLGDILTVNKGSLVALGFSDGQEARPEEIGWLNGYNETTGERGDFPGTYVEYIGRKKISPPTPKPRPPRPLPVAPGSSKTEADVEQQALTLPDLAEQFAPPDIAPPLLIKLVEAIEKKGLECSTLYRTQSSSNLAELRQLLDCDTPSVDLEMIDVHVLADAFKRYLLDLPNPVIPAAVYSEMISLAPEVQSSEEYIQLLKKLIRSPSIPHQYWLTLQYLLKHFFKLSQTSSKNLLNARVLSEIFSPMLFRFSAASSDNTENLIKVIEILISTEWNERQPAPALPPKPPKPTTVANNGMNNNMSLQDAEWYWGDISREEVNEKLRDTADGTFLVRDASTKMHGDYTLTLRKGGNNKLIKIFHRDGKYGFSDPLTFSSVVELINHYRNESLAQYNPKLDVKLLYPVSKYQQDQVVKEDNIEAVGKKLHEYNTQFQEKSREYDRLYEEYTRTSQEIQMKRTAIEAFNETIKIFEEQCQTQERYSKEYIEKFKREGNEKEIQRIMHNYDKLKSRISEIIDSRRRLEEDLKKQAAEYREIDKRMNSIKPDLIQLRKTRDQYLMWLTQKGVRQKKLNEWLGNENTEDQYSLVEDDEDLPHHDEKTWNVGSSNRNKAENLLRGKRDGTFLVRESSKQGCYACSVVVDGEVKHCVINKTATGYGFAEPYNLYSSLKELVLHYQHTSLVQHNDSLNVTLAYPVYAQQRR

PI3Kdelta, sequence (O00329 whole entry, canonical isoform): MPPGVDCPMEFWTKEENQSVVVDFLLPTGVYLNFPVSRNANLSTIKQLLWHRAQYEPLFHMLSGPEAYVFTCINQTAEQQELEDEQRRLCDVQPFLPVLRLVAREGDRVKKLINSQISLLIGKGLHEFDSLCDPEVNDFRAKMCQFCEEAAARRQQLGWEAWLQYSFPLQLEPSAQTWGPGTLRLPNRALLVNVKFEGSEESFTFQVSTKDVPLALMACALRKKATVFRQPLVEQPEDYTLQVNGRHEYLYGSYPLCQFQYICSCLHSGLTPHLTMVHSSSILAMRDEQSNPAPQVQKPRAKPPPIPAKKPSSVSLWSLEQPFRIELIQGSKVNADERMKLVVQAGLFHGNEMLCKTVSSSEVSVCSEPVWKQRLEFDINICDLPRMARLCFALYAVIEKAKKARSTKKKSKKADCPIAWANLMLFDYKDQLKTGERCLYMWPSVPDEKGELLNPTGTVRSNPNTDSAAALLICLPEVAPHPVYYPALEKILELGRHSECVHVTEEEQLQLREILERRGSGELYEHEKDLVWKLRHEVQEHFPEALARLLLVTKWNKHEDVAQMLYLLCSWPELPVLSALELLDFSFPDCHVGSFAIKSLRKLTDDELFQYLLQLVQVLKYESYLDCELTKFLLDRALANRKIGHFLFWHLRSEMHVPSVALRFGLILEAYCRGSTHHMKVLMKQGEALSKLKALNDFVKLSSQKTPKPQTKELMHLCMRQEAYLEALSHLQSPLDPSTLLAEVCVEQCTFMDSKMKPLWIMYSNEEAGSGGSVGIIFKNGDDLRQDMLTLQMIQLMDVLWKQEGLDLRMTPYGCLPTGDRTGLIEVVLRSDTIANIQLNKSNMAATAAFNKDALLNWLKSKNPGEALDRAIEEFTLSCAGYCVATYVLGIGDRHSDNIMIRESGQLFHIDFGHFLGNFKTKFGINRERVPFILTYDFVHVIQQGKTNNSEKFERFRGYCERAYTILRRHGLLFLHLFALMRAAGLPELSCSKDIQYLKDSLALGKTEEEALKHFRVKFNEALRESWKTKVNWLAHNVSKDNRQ
PI3Kdelta, sequence (P27986 whole entry partner, canonical isoform): as the sequence (P27986 whole entry partner, canonical isoform) above

For the compound `CCn1c(-c2cnc(C)nc2)nc2c(-c3ccc4oc(=O)n(C(C)C5CC5)c4c3)ncnc21` (single isomer, unassigned) [Compound 5-5, (R or S)-3-(1-cyclopropylethyl)-5-[9-ethyl-8-(2-methylpyrimidin-5-yl)-9H-purin-6-yl]-1,3-benzoxazol-2(3H)-one], the pIC50 on PI3Kdelta is 7.38. The “Relative Selectivity versus PI3Kalpha” value on PI3Kalpha is recorded as above 10.

Take `CCn1c(-c2cnc(C)nc2)nc2c(-c3ccc4c(c3)C(C)(NCC3(C)CCC3)C(=O)N4)ncnc21` (racemic) [Compound 2-18, (R and S)-5-[9-ethyl-8-(2-methylpyrimidin-5-yl)-9H-purin-6-yl]-3-methyl-3-{[(1-methylcyclobutyl)methyl]amino}-1,3-dihydro-2H-indol-2-one]: the pIC50 at PI3Kdelta was 8.10. Further, the “Relative Selectivity versus PI3Kalpha” value at PI3Kalpha is above 10.

Regarding `CCn1c(-c2cnc(C)nc2)nc2c(-c3ccc4c(c3)C(C)(CC(C)C)OC(=O)N4)ncnc21` (single isomer, unassigned) [Compound 4-3, (R or S)-6-[9-ethyl-8-(2-methylpyrimidin-5-yl)-9H-purin-6-yl]-4-methyl-4-(2-methylpropyl)-1,4-dihydro-2H-3,1-benzoxazin-2-one], the pIC50 at PI3Kdelta was 7.23. The “Relative Selectivity versus PI3Kalpha” value at PI3Kalpha came to 6.

Take `CCn1c(-c2cnc(C)nc2)nc2c(-c3ccc4c(c3)C3(CCCN3C(=O)C3CC3)C(=O)N4C(C)C)ncnc21` (single isomer, unassigned) [Compound 3-10, (R or S)-1′-(cyclopropanecarbonyl)-5-(9-ethyl-8-(2-methylpyrimidin-5-yl)-9H-purin-6-yl)-1-isopropylspiro[indoline-3,2′-pyrrolidin]-2-one]: at PI3Kdelta, the pIC50 was 8.52. Moreover, the “Relative Selectivity versus PI3Kalpha” value on PI3Kalpha was above 10.

`CCn1c(-c2cnc(C)nc2)nc2c(-c3ccc4c(c3)C3(CCCN3S(=O)(=O)C(F)(F)F)C(=O)N4)ncnc21` (single isomer, unassigned) [Compound 3-21, (R or S)-5-(9-ethyl-8-(2-methylpyrimidin-5-yl)-9H-purin-6-yl)-1′-((trifluoromethyl)sulfonyl)spiro[indoline-3,2′-pyrrolidin]-2-one]: the pIC50 on PI3Kdelta is 7.16. In addition, the “Relative Selectivity versus PI3Kalpha” value at PI3Kalpha was found to be 2.

For `CCn1c(-c2cnc(C)nc2)nc2c(-c3ccc4c(c3)C(C)(N3CC(OC)C3)C(=O)N4)ncnc21` (single isomer, unassigned) [Compound 2-78, (R or S)-5-(9-ethyl-8-(2-methylpyrimidin-5-yl)-9H-purin-6-yl)-3-(3-methoxyazetidin-1-yl)-3-methylindolin-2-one], the pIC50 at PI3Kdelta was 6.62. Also, the “Relative Selectivity versus PI3Kalpha” value at PI3Kalpha is above 10.

As to `CCn1c(-c2cnc(C)nc2)nc2c(-c3ccc4c(c3)C(C)(N3CCn5nccc5C3)C(=O)N4)ncnc21` (racemic) [Compound 2-24, (R and S)-3-(6,7-dihydropyrazolo[1,5-a]pyrazin-5(4H)-yl)-5-[9-ethyl-8-(2-methylpyrimidin-5-yl)-9H-purin-6-yl]-3-methyl-1,3-dihydro-2H-indol-2-one], the pIC50 at PI3Kdelta is 7.17. Besides, the “Relative Selectivity versus PI3Kalpha” value on PI3Kalpha is reported as above 10.

For the compound `CCn1c(-c2cnc(C)nc2)nc2c(-c3ccc4c(c3)C(C)(CC(C)(C)O)C(=O)N4)ncnc21` (single isomer, unassigned) [Compound 1-41, 5-(9-Ethyl-8-(2-methylpyrimidin-5-yl)-9H-purin-6-yl)-3-(2-hydroxy-2-methylpropyl)-3-methylindolin-2-one], the pIC50 at PI3Kdelta is 7.64. In addition, at PI3Kalpha, the “Relative Selectivity versus PI3Kalpha” value is given as above 10.

For `CCn1c(-c2cnc(C)nc2)nc2c(-c3ccc4c(c3)C(C)(NCC3(C#N)CCC3)C(=O)N4)ncnc21` (racemic) [Compound 2-19, (R and S)-1-[({5-[9-ethyl-8-(2-methylpyrimidin-5-yl)-9H-purin-6-yl]-3-methyl-2-oxo-2,3-dihydro-1H-indol-3-yl}amino)methyl]cyclobutane-carbonitrile], the pIC50 at PI3Kdelta is 7.66. Also, the “Relative Selectivity versus PI3Kalpha” value at PI3Kalpha was above 10.

In the case of `CCn1c(-c2cnc(C)nc2)nc2c(-c3ccc4c(c3)C(C)(NCC(C)(C)C#N)C(=O)N4)ncnc21` (single isomer, unassigned) [Compound 2-40, (R or S)-3-((5-(9-ethyl-8-(2-methylpyrimidin-5-yl)-9H-purin-6-yl)-3-methyl-2-oxoindolin-3-yl)amino)-2,2-dimethylpropanenitrile], the pIC50 at PI3Kdelta is 6.75. In addition, the “Relative Selectivity versus PI3Kalpha” value on PI3Kalpha is listed as above 10.

For `CCn1c(-c2cnc(C)nc2)nc2c(-c3ccc4c(c3)C3(CCCO3)C(=O)N4)ncnc21` (single isomer, unassigned) [Compound 3-31, (R or S)-5′-(9-ethyl-8-(2-methylpyrimidin-5-yl)-9H-purin-6-yl)-4,5-dihydro-3H-spiro[furan-2,3′-indolin]-2′-one], the pIC50 on PI3Kdelta is 7.00. Besides, the “Relative Selectivity versus PI3Kalpha” value on PI3Kalpha is above 10.

For `Cc1ncc(-c2nc3c(-c4ccc5c(c4)C4(CCCN4C(C)C)C(=O)N5)ncnc3n2C)cn1` (single isomer, unassigned) [Compound 3-14, (R or S)-1′-isopropyl-5-(9-methyl-8-(2-methylpyrimidin-5-yl)-9H-purin-6-yl)spiro[indoline-3,2′-pyrrolidin]-2-one], the pIC50 on PI3Kdelta is 8.70. On PI3Kalpha, the “Relative Selectivity versus PI3Kalpha” value is given as above 10.

`CCn1c(-c2cnc(C)nc2)nc2c(-c3ccc4c(c3)C(C)(N[C@H](C)C3CCC3)C(=O)N4)ncnc21` (mixture of isomers) [Compound 2-17, 3-{[(1R)-1-cyclobutylethyl]amino}-5-[9-ethyl-8-(2-methylpyrimidin-5-yl)-9H-purin-6-yl]-3(R and S)-methyl-1,3-dihydro-2H-indol-2-one]: the pIC50 on PI3Kdelta is 8.00. Also, the “Relative Selectivity versus PI3Kalpha” value at PI3Kalpha is recorded as above 10.

With `CCn1c(-c2cnc(C)nc2)nc2c(-c3ccc4c(c3)C(C)(OCC3CC3)C(=O)N4)ncnc21` (single isomer, unassigned) [Compound 2-58, (R or S)-3-(cyclopropylmethoxy)-5-(9-ethyl-8-(2-methylpyrimidin-5-yl)-9H-purin-6-yl)-3-methylindolin-2-one], on PI3Kdelta, the pIC50 is 8.15. For the same compound, the “Relative Selectivity versus PI3Kalpha” value at PI3Kalpha was above 10.

With `CCn1c(-c2cnc(C)nc2)nc2c(-c3ccc4c(c3)C(Cc3ccccc3)NC4=O)ncnc21` (single isomer, unassigned) [Compound 4-9, (R or S)-3-benzyl-5-[9-ethyl-8-(2-methylpyrimidin-5-yl)-9H-purin-6-yl]-2,3-dihydro-1H-isoindol-1-one], on PI3Kdelta, the pIC50 is 7.66. Moreover, the “Relative Selectivity versus PI3Kalpha” value at PI3Kalpha is above 10.

For the compound `CCn1c(-c2cnc(C)nc2)nc2c(-c3ccc4c(c3)C(C)(N(C)CCOC)C(=O)N4)ncnc21` (racemic) [Compound 2-14, (R and S)-5-[9-ethyl-8-(2-methylpyrimidin-5-yl)-9H-purin-6-yl]-3-[(2-methoxyethyl)(methyl)amino]-3-methyl-1,3-dihydro-2H-indol-2-one], the pIC50 at PI3Kdelta is 7.34. The “Relative Selectivity versus PI3Kalpha” value on PI3Kalpha is reported as above 10.

`CCn1c(-c2cnc(C)nc2)nc2c(-c3cnc4c(c3)C(C)(CC(C)C)C(=O)N4)ncnc21` (single isomer, unassigned) [Compound 1-12, 5-(9-ethyl-8-(2-methylpyrimidin-5-yl)-9H-purin-6-yl)-3-isobutyl-3-methyl-1,3-dihydro-2H-pyrrolo[2,3-b]pyridin-2-one]: the pIC50 on PI3Kdelta was 8.05. Moreover, the “Relative Selectivity versus PI3Kalpha” value on PI3Kalpha is above 10.

By pIC50 is commonly meant the negative decadic logarithm of the IC50, by convention in mol/L.
